Experimental data: US12648942B2, “Method for treating acute ischemic stroke” (Lumosa Therapeutics Co., LTD, priority 2021, dated 2026)

Experiments:
[1] = tested on: embolic occlusion of the middle cerebral artery in male Sprague-Dawley rats; assay: Embolic stroke model in SD rat (Examples 1, 4-6); type: in vivo, Sprague-Dawley rat; details: for Mean neurological deficit scores (NDS): 24 hours after drug administration
Experimental: A 10% chloral hydrate solution (400 mg/kg) was injected intraperitoneally into SD male rats (240-320 g) for anesthesia. A vertical incision of about 2 cm in length was made on the right side near the center of the neck, and the right common carotid artery (CCA), external carotid artery (ECA) and internal carotid artery (ICA) were separated along the margin of the inner side of sternocleidomastoid muscles. The incision at the internal carotid artery and the proximal end of the common carotid artery were clipped respectively with noninvasive arterial clips. A small incision was made on the external carotid artery, and the distal end of the external carotid artery was ligated. The arterial clip at the proximal end of the common carotid artery was released, and 10 μl blood was drawn. After blood was drawn, the proximal end of the common carotid artery was again clipped with a noninvasive arterial clip. The 10 μl blood drawn was placed in a 1 mL EP vial and kept at RT for 30 min to allow the coagulation of blood and then transferred into a −20° C. refrigerator for 1 hour to allow the formation of solid coagulation. 1 hour later, the blood clots were taken out, 1 mL normal saline was added therein, and then the blood clots were broken into relatively uniform microthrombus by a steel spatula. The microthrombus suspension was then transferred into a 1 mL injector for use. When the clip on the internal carotid artery of the rat was released, the 1 mL thrombus suspension in the injector was slowly injected from the external carotid artery of the rat to its proximal end, and then was injected into the brain of the rat through the internal carotid artery. Subsequently, the proximal end of the external carotid artery was ligated, the arterial clips on the internal carotid artery and the common carotid artery were released, and blood flow was restored. The common jugular vein was separated, and then injected with normal saline solution, or tested compound. The vein was ligated. 3 drops of penicillin was dropped on the wound. The wound was sewed, and animals were waited for awake.
24 hours after the rats were awake, the degree of damage in neural function was evaluated by the Zealonga method. A score of 0 indicated no sign of loss in neural function, 1 indicated the front limbs on the undamaged side could not stretch out, 2 indicated walking toward the undamaged side, 3 indicated tail-chasing walking in circles toward the undamaged side, 4 indicated involuntary walking with disturbance of consciousness, and 5 indicated death. The evaluation results were statistically analyzed and subjected to t-test.
After the rats were awake for 24 hours and assessed for their degree of damage in neural function by Zealonga method, they were anesthetized with urethane followed by immediate decapitation and removal of the brain. Brain tissues were kept in a −20° C. refrigerator for 2 hours, and coronal sections of about 2 mm were successively sliced from the prefrontal end for a total of 5 sections and then placed into a 2% TTC solution to incubate without light at 37° C. for 30 min. The color change in brain sections was observed: normal brain tissues were stained red by TTC, while ischemic brain tissues appeared in white. Photographs were taken by using a digital camera and processed with image statistics software, and the volume of infarction in brain tissues and the area of normal brain tissues in the coronal sections were calculated. The ratio of the cerebral infarction volume of each group was statistically calculated and subject to t-test.
An embolic occlusion of the middle cerebral artery in male Sprague-Dawley rats was induced by introducing blood clots into the carotid artery. Rats were treated with vehicle (saline), rtPA (10 mg/kg, IV bolus injection), or DC009 (0.007 mg/kg, IV bolus injection) after 3 hours of stroke onset (n=12-13 per treatment group). […]

[2] = tested on: embolic middle cerebral artery occlusion (MCAO) rats; assay: Embolic middle cerebral artery occlusion (MCAO) model in Wistar rat (Examples 2, 7-9); type: in vivo; details: for blood flow compared to saline treated group: measured for 3 hours, p<0.0001 vs saline; for Mean neurological severity score (NSS): 24 hours post-MCAO, scale 0-18
Experimental: At Day 0, anesthetize the rats to collect blood from the femoral artery to prepare the homologous clot. Create a partial arteriotomy with a microscissors and then insert a sterile PE-50 tubing ([…]) along the artery. Arterial blood collected in this length of the PE-50 tubing commonly generates ˜10 indusial clots that are suitable for MCAO. Keep the clot in the tube for 2 hours at room temperature and subsequently retain for 22 hours at 4° C.
At Day 1, to prepare the embolus, cut the clot containing PE-50 tubing into 32 mm segment in length and connect the segment with a 3 ml saline filled syringe with 23G needle. Push the syringe to flush the clot out of the PE-50 tubing into saline filled Petri dish. Draw and flush the clot into and out of the PE-10 tubing (draw from clot's end to avoid folding and twisting of the clot), respectively, 10-15 times to wash out the majority of the entrapped red blood cells until the clot without further RBCs releasing. Connect the PE-10 tubing to the modified PE-50 catheter and shift the clot into PE-50 catheter. Then, the modified PE-50 catheter is connected to a 100 μl Hamilton microsyringe. The clot is now ready to be used.
At Day 1, anesthetize the rats. Bluntly dissect the carotid sheath along the common carotid artery (CCA) until the ECA (ipsilateral external carotid artery), PPA (pterygopalatine artery), and ICA (internal carotid artery) bifurcation is exposed. […] Prepare laser Doppler flow probe into the tube of head. Temporarily clamp the CCA, PPA, and ICA with clip and apply a 4-0 silk suture loosely around the trunk of the ECA near bifurcation. Release the clip slowly and further advance the catheter within the ICA to enter the intracranial segment of the ICA until resistance is felt. The total length of the catheter that has been advanced is −19-22 mm from the ECA arteriotomy site. Retract the catheter 1-2 mm and slowly inject the clot with 5-10 μl of saline at rate of 10 μl/min. The percentage of regional cerebral flow (rCBF) decrease into ˜20-30% after clot injection. Wait for 30 minutes to let the clot stable at the ICA. Retract the catheter until its tip reaches the ECA/ICA bifurcation. Re-apply a clip to temporarily clamp the CCA and the ICA and then withdraw the catheter from the arteriotomy. Tighten the 4-0 silk suture around the ECA trunk to ligate the arteriotomy. Remove the clip. Wait for another 30 minutes to make sure the animal is stable and there is no blooding issue. Close the incision and terminate the anesthesia.
Neurological deficits were assessed at 24 h after MCAO surgery. The neurological function was graded on a scale of 0-18, with 0 representing normal function and 18 representing maximum neurological deficits (see FIG. 2).
24 hours after the induction of MCAO, anesthetize the rat with 5% isoflurane and use normal saline to do the perfusion from heart (150 ml). Decapitate the rat and collect the brain. Rinse the collected dish and matrix with PBS before used. To tear out clot after taking photo. Slice the brain coronally into […] 2-mm slices with a brain matrix on ice (Cut the brain into 8 pieces). Incubate the brain slices in 2% 2,3,5-triphenyltetrazolium chloride (TTC) (Sigma-Aldrich) in 1×PBS for 20 min at room temperature (avoid light) and record the result by photo. Then, using ImageJ to determine the size and extent of the infarction.
The caudal sides of all the TTC sections were scanned using a digital camera, and the images were stored as JPEG. The non-ischemic and ischemic hemisphere infarct areas were measured using image J (Image J, Bethesda, MD) software. All eight infarct area measurements were calculated with a 2 mm distance between the slices. […]

Molecule: rtPA: Alteplase (Activase), a recombinant tissue-type plasminogen activator (rtPA) [reference compound]
- Mean neurological deficit scores (NDS) ([1]; rtPA 3 mg/kg IV bolus 6 hours after stroke onset, 6-point scale): 3.27 ± 1.85
- infarct volumes (% hemisphere) ([1]; rtPA 3 mg/kg IV bolus 6 hours after stroke onset, 24 hours, TTC): 17.90 ± 7.47% hemisphere
- Mean neurological deficit scores (NDS) ([1]; rtPA 10 mg/kg IV bolus 3 hours after stroke onset, scale 0-5): 2.13 ± 1.173
- infarct volumes (% hemisphere) ([1]; rtPA 10 mg/kg IV bolus 3 hours after stroke onset, 24 hours, TTC): 12.74 ± 9.02% hemisphere
- blood flow compared to saline treated group ([2]; rtPA 10 mg/kg (10% IV bolus, rest infused for 30 minutes) 1 hour after stroke onset, FIG. 3): increased
- Mean neurological severity score (NSS) ([2]; rtPA 10 mg/kg (10% IV bolus, rest infused for 30 minutes) 3 hours after stroke onset): 6.38 ± 0.74
- infarct volumes (% hemisphere) ([2]; rtPA 10 mg/kg (10% IV bolus, rest infused for 30 minutes) 3 hours after stroke onset, 24 hours, TTC): 43.23 ± 11.03 % hemisphere

Molecule: CC(NC(=O)C1CCCN1)C(=O)NC(CCCCN)C(=O)NCCCCC(NC(=O)C1Cc2cc(O)c(O)cc2C(C)(C)N1)C(=O)O (stereo not drawn) [DC009, 3S-6,7-dihydroxy-1,1-dimethyl-1,2,3,4-tetrahydro-isoquinoline-3-acyl-Lys(Pro-Ala-Lys)]
- infarct volumes (% hemisphere) ([1]; DC009 0.0007 mg/kg IV bolus from 24 hours after stroke onset, once daily for 6 days, 7 days after stroke): 9.95 ± 10.32% hemisphere
- effective dose in the rat Embolic Stroke Model ([1]; data from Example 4-6): 7 to 70 µg/kg
- Mean neurological severity score (NSS) ([2]; DC009 0.005 mg/kg, 15-minute IV infusion 3 hours after stroke onset): 7.13 ± 0.64
- infarct size compared to saline and rtPA treated groups ([2]; DC009 0.025 mg/kg at 3 and 6 hours post MCAO surgery, 24 hours after stroke, TTC, FIG. 4): significant smaller infarct size
- restoring occluded blood flow ([2]; DC009 0.05 mg/kg, 15-minute IV infusion 1 hour after stroke onset, FIG. 3): good efficacy
- blood flow compared to saline treated group ([2]; DC009 0.05, 0.1, 0.2 and 0.4 mg/kg, 15-minute IV infusion 1 hour after stroke onset, FIG. 3): increased
